Measured values published in US9365572B2, “PI3K and/or mTOR inhibitor” (XUANZHU PHARMA CO., LTD., priority 2012, dated 2016).

Tests used:
[1] = biological target: Platelet Activating Factor (PAF) (Homo sapiens (Human), UniProt P25105); experiment: Radioligand binding assay No. 265010; conditions: test substance 10 μM, read-out: Inhibitory rate (%), Platelet Activating Factor (PAF)
Glutamate, NMDA, Agonism = experiment: Radioligand binding assay No. 232810; conditions: test substance 10 μM; rat
BRAF V600E = BRAF V600E (Homo sapiens (Human), UniProt P15056, V600E); experiment: Kinase selectivity, Lanthascreen analysis method; format: biochemical
MCF-7 = experiment: In vitro cytological inhibitory activity (XTT); format: cell-based; conditions: Homo sapiens, MCF7, 72 hrs
Protocol: MCF-7: Human breast carcinoma cell line;
1. Preparation of agents and compounds:
• 1.1 Preparation of phosphoric acid buffering solution (PBS): 8 g NaCl, 0.2 g KCl, 1.44 g Na2HPO4 and 0.24 g KH2PO4 were weighed and added to 800 mL ultrapure water. The mixture was adjusted to pH=7.4, and ultrapure water was added to the metered volume of IL. Then the autoclaving was conducted for 20 mins. • 1.2 Preparation of XTT detection working solution: 100 mg (2,3-Bis-(2-methoxy-4-nitro-5-sulfophenyl)-2H-tetrazolium-5-carboxanilide); 2,3-bis(2-methoxy-4-nitro-5-sulfophenyl)-5-[(phenylamino)carbonyl]-2H-tetrazolium hydroxide (XTT) powder was weighed, and dissolved under protection from light 300 mL of phenol red-free and serum-free RPMI1640 culture, which had been warmed up to 50° C. The resulting mixture was filtered, packaged and used immediately or in one week. The complete process was conducted under protection from light. • 1.3 Preparation of the test compound • Preparation of the stock solution of the test compound: The test compound powder was dissolved in DMSO in a concentration of 10 mM. • Preparation of the gradiently diluted solution of the test compound: 10 mM of the stock solution of the test compound was successively and gradiently diluted with DMSO by 4 folds for 10 concentrations. […]

Dopamine D1 = Dopamine D1 (Homo sapiens (Human), UniProt P21728); experiment: Radioligand binding assay No. 219500; conditions: test substance 10 μM, read-out: Inhibitory rate (%), Dopamine D1
Dopamine D1, sequence (P21728 whole entry): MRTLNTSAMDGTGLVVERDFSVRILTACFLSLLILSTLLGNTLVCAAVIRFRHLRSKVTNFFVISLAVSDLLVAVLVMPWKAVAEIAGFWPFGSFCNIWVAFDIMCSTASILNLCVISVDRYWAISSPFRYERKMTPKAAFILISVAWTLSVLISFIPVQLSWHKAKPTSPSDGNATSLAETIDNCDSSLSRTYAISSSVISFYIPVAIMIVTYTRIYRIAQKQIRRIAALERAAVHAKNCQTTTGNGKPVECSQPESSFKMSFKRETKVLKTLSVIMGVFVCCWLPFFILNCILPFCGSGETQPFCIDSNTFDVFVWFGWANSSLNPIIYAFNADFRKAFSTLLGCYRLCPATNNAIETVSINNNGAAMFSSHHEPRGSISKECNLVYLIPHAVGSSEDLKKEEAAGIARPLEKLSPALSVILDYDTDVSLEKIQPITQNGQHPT

Platelet Activating Factor (PAF), sequence (P25105 whole entry): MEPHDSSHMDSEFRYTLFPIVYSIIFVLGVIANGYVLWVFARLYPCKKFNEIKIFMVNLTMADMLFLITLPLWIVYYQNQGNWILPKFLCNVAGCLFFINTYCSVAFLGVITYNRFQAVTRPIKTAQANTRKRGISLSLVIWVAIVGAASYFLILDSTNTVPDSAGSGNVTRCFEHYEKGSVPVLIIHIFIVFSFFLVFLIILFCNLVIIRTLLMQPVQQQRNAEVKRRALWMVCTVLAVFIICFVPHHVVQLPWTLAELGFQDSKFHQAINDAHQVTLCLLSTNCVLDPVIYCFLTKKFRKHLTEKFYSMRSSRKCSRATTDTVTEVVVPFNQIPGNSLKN
BRAF V600E, sequence (P15056 whole entry V600E): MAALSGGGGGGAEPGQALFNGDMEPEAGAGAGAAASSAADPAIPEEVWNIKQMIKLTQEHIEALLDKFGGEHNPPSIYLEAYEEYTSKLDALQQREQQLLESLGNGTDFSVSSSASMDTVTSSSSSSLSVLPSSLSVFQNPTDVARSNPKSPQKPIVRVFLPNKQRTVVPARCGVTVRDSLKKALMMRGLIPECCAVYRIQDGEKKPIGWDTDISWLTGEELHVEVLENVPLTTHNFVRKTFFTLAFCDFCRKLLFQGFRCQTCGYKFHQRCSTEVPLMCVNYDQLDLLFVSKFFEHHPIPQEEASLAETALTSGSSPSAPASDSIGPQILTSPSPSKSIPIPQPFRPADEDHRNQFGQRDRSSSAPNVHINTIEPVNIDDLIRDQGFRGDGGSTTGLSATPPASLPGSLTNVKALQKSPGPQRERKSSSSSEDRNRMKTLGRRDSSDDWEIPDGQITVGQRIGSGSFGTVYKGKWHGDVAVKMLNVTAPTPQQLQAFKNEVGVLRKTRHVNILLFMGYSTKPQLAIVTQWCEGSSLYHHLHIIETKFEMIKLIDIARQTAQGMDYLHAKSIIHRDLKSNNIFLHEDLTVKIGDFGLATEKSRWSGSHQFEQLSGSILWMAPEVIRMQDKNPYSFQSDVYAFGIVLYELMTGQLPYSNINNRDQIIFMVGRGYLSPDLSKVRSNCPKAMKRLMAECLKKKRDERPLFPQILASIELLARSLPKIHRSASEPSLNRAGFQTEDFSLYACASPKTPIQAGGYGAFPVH

Nc1ccc(-c2ccc3ncc4c(=O)[nH]c(=O)n(-c5cccc(C(F)(F)F)c5)c4c3n2)cn1 [Compound 5, 9-(6-aminopyridin-3-yl)-1-(3-(trifluoromethyl)phenyl)pyrimido[5,4-c][1,5]naphthyridine-2,4(1H,3H)-dione]
inhibition at 10 µM [1]: 20%
Inhibitory rate (%), Glutamate, NMDA, Agonism (Glutamate, NMDA, Agonism): 29%
IC50 (BRAF V600E): > 10000 nM
IC50 (MCF-7): 28.2 nM
inhibition at 10 µM (Dopamine D1): 21%
